In data set [1] the test system is adult T. muris. The data set can be described thus: Ex vivo adult T. muris automated motility assay (primary/secondary screen at 100 μM and dose-response). The arrangement: species or system Trichuris muris. In short, it runs like this: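 Motility scored after 24 h (37 °C, 5% CO2) by automated imaging of pixel intensity variance, one worm per well, four weekly biological replicates. Worms came from SCID mice infected orally with 200 eggs, harvested day 35; screening at 100 μM final in RPMI-1640/antibiotics, 1% DMSO; curves fitted with four-parameter log-logistic model.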

The nature of data set [2]: WST-8 cytotoxicity assay. The class given is cell-based, mouse. Particulars: mouse, CMT-93 rectal epithelial cells; resynthesised compound, WST-8 cytotoxicity; read-out: ResynCytotoxityWST-8(EC50uM). The method, then:
CMT-93 murine rectal epithelial cells were maintained in Dulbecco's Modified Eagle's Medium (DMEM) with 10% fetal calf serum (FCS) and 1% penicillin-streptomycin solution (10,000U/ml). Cells were plated in 96-well tissue culture plates at a density of 2x10^2 cells per well in a volume of 100μl, and cultured for 96 hours (37°C, 5% CO2) until reaching 30% confluence. The growth medium was removed and replaced with treatment media (DMEM, 1% FCS, 1% penicillin-streptomycin solution, 100μl assay volume) supplemented with vehicle alone (DMSO), test compounds or chlorpromazine, a positive control for cytotoxicity (final concentrations from 0 to 100μM). Maximum vehicle concentration for all compounds was 0.5% DMSO. Cells were cultured with the test compounds for 72 hours before cytotoxicity measurement. The WST-8 assay was performed using the Cell Counting Kit– 8 (Sigma Aldrich # 96992). 10μl of the CCK-8 solution was added to each well, plates were incubated for a further 2 hours, before absorbance was measured at 450nm using a microplate reader. This assay measures the ability of metabolically active cells to reduce a water-soluble formazan dye. Results were analysed using GraphPad Prism and fitted using a log-logistic model.
On the technique in general: Tetrazolium dyes change colour on reduction, which living cells bring about.

A short description of data set [3]: Neutral red cytotoxicity assay. The class given is cell-based, mouse. The settings on record: mouse, CMT-93 rectal epithelial cells; resynthesised compound, neutral red cytotoxicity; read-out: ResynCytotoxicityNeutralRed(EC50uM). On the procedure:
CMT-93 murine rectal epithelial cells were maintained in Dulbecco's Modified Eagle's Medium (DMEM) with 10% fetal calf serum (FCS) and 1% penicillin-streptomycin solution (10,000U/ml). Cells were plated in 96-well tissue culture plates at a density of 2x10^2 cells per well in a volume of 100μl, and cultured for 96 hours (37°C, 5% CO2) until reaching 30% confluence. The growth medium was removed and replaced with treatment media (DMEM, 1% FCS, 1% penicillin-streptomycin solution, 100μl assay volume) supplemented with vehicle alone (DMSO), test compounds or chlorpromazine, a positive control for cytotoxicity (final concentrations from 0 to 100μM). Maximum vehicle concentration for all compounds was 0.5% DMSO. Cells were cultured with the test compounds for 72 hours before cytotoxicity measurement. Following the WST-8 assay, the medium was removed, cells were washed with 100μl PBS and then 100μl of neutral red medium (DMEM, 1% FBS and 33μg/ml neutral red dye (Sigma Aldrich #N2889) were added to each well, followed by incubation for a further 2 hours. The neutral red medium was removed, cells washed with 100μl of PBS and 100μl of destain solution (50% ethanol, 49% distilled water and 1% glacial acetic acid) were added. Each assay plate was shaken rapidly for 10 minutes before absorbance was measured at 540nm using a microplate reader. This assay measures the ability of living cells to actively take up the neutral red dye. Results were analysed using GraphPad Prism and fitted using a log-logistic model.

Data set [4] concerns embryonated T. muris eggs. Put plainly: In vivo establishment of infection by compound-treated embryonated eggs. The arrangement: species or system Trichuris muris. The settings on record: resynthesised compound, activity on T. muris egg infectivity (Yes/No). The method, then:
100 infective embryonated eggs were incubated with water, water plus DMSO vehicle, or test compounds at a final concentration of 100μM for 14 days at room temperature. Eggs were then washed, re-suspended in water and 30 eggs given to a mouse via oral gavage. At day 15 post-infection, mice were culled and the number of worms present in the caecae and colon was counted. One data point was excluded: a water control individual mouse where there were technical difficulties with the oral gavage leading to the mouse regurgitating some of the T. muris eggs. It was ear marked at day of gavage and removed from the analysis.
We collected data using the same experimental design on different occasions, these are referred to as batches. Data were obtained from three batches (DMSO and water controls, batches [A,B,C]) or two batches (OX02983 [A,C], OX03153 [B,C]) with the total number of mice used, n, as follows: DMSO: 14, water: 16, OX02983: 10, OX03153: 12. The data were analysed by 2-way ANOVA (worms ~ treatment + batch + treatment * batch). There was no significant interaction effect (P = 0.14) or effect of batch (P = 0.47). We therefore combined the data from the three batches. […] We then conducted a post-hoc test using Tukey’s honest significant difference test.

Data set [5] deals with un-embryonated T. muris eggs. The data set can be described thus: Embryonation assay. Further details: species or system Trichuris muris. Particulars: resynthesised compound, activity on T. muris embryonation (Yes/No). On the procedure:
To assess whether the dihydrobenzoxazepinone compounds could also prevent embryonation, 100 un-embryonated eggs were treated with OX02983 and OX03153 at 100μM for 56 days in the dark at room temperature, then examined under an Olympus SD-ILK microscope for signs of embryonation.

Data set [6] concerns T. muris L1 larvae. The arrangement: method as in PMID 23433224. Particulars: cited from earlier work.
Data set [7] relates to L3/L4 and adult T. muris. Further details: method as in PMID 25261877. The settings on record: 200μg/ml (678μM); cited from earlier work.
Data set [8] relates to T. trichiura. The settings on record: single doses of benzimidazoles; cited from earlier work.
The subject of data set [9] is Ascaris. The arrangement: method as in PMID 18430913. Particulars: annual treatment; cited from earlier work.
Data set [10] has as its system T. muris L4 larvae. The arrangement: method as in PMID 21889548. Particulars: maximum concentration tested 200μg/ml or 229μM; cited from earlier work.

Like-named read-outs stand apart in the source and are kept apart here.

On to `Cc1ccc(CN2C(=O)COCc3cc(-c4cccnc4)ccc32)cc1` [Compound 5], for which the EC50 in data set [1] (Trichuris muris, resynthesised compound, adult T. muris paralysis, read-out: ResynActivityTmurisAdultParalysis(EC50uM)) amounted to 57 µM. Besides, the COMBINED_SCREEN_ACTIVITY in data set [1] (combined primary and secondary screen minus log fold change in movement, adult T. muris, 100 μM) was determined as 10.5493. In addition, the PRIMARY_SCREEN_MINUS_LOG_FOLD_CHANGE_MOVEMENT in [1] (primary screen, adult T. muris motility, 100 μM) is 10.5493. Besides, the EC50 at 72 h in [2] and in data set [3] was more than 100 µM throughout. The ResynActivityTmurisEggInfectivity result in data set [4] is recorded as “No”. For the same molecule, the ResynActivityTmurisEmbryonation entry in [5] was “No”.

For the molecule `COC(=O)Nc1nc2ccc(C(=O)c3ccccc3)cc2[nH]1` [Mebendazole], in data set [6] (maximum concentration tested 50μg/ml or 169μM), the “Activity against T. muris L1 larvae” value is “not active”. Besides, the “Activity against L3/L4 and adult T. muris” value in [7] was “active”. Also, the “Cure rate for infection with T. trichiura” value in [8] was 36%. For the same molecule, in [9], the “Cure rate, Ascaris” value is given as “up to 95%”.

With Ivermectin, the “Activity against T. muris L4 larvae” value in [10] was “not active”. The “Activity against T. muris L1 larvae” value in data set [6] (maximum concentration tested 50μg/ml or 57μM) was “not active”.
